ChEMBL document CHEMBL3297661, “1-Substituted-5-[(3,5-dinitrobenzyl)sulfanyl]-1H-tetrazoles and their isosteric analogs: A new class of selective antitubercular agents active against drug-susceptible and multidrug-resistant mycobacteria” (Eur J Med Chem, 2014)
pIC50: −log10 of the molar value. In brackets after ≈: the same amount, converted by molar mass.

What was measured:
HepG2 = test: Cytotoxicity against human HepG2 cells assessed as reduction in cell viability after 48 hrs by MTT assay; format: cell-based; conditions: HepG2, 48 h
Staphylococcus aureus [1] = test: Antibacterial activity against Staphylococcus aureus ATCC 6538 after 24 hrs by broth microdilution method; format: functional; conditions: ATCC 6538, 24 h
Candida albicans [2] = test: Antifungal activity against Candida albicans ATCC 44859 after 24 hrs by broth microdilution method; format: functional; conditions: ATCC 44859, 24 h
Mycobacterium kansasii [3] = test: Antimycobacterial activity against Mycobacterium kansasii CNCTC My 235/80 after 7 days by micromethod; format: functional; conditions: CNCTC My 235/80, 168 h
Lichtheimia corymbifera [4] = test: Antifungal activity against Absidia corymbifera 272 after 24 hrs by broth microdilution method; format: functional, organism-based; conditions: Lichtheimia corymbifera, 272, 24 h
Mycobacterium avium [5] = test: Antimycobacterial activity against Mycobacterium avium CNCTC My 330/88 after 14 days by micromethod; format: functional; conditions: CNCTC My 330/88, 336 h
Nakaseomyces glabratus [6] = test: Antifungal activity against Candida glabrata 20/I after 48 hrs by broth microdilution method; format: functional
[7] = system: Mycobacterium tuberculosis; test: Antimycobacterial activity against Mycobacterium tuberculosis CNCTC My 331/88 after 14 days by micromethod; format: functional; conditions: CNCTC My 331/88, 336 h
[8] = Cytotoxicity against MDCK2 cells assessed as cell viability at 30 uM after 48 hrs by MTT assay; format: cell-based, Canis lupus familiaris, MDCK-II; conditions: dog, read-out: Activity
Candida tropicalis [9] = test: Antifungal activity against Candida tropicalis 156 after 24 hrs by broth microdilution method; format: functional; conditions: Candida tropicalis, 156, 24 h
Klebsiella pneumoniae [10] = test: Antibacterial activity against Klebsiella pneumoniae D 11750/08 after 24 hrs by broth microdilution method; format: functional; conditions: D 11750/08, 24 h
Trichosporon asahii [11] = test: Antifungal activity against Trichosporon asahii 1188 after 48 hrs by broth microdilution method; format: functional; conditions: Trichosporon asahii, 1188, 48 h
Nakaseomyces glabratus [12] = test: Antifungal activity against Candida glabrata 20/I after 24 hrs by broth microdilution method; format: functional
[13] = system: Trichophyton mentagrophytes; test: Antifungal activity against Trichophyton mentagrophytes 445 after 120 hrs by broth microdilution method; format: functional, organism-based; conditions: Trichophyton mentagrophytes, 445, 120 h
Enterococcus faecalis [14] = test: Antibacterial activity against Enterococcus faecalis J 14365/08 after 24 hrs by broth microdilution method; format: functional; conditions: J 14365/08, 24 h
Staphylococcus aureus [15] = test: Antibacterial activity against methicillin-resistant Staphylococcus aureus H 5996/08 after 24 hrs by broth microdilution method; format: functional; conditions: H 5996/08, 24 h
Trichosporon asahii [16] = test: Antifungal activity against Trichosporon asahii 1188 after 24 hrs by broth microdilution method; format: functional; conditions: Trichosporon asahii, 1188, 24 h
Aspergillus fumigatus [17] = test: Antifungal activity against Aspergillus fumigatus 231 after 48 hrs by broth microdilution method; format: functional, organism-based; conditions: Aspergillus fumigatus, 231, 48 h
Staphylococcus aureus [18] = test: Antibacterial activity against Staphylococcus aureus ATCC 6538 after 48 hrs by broth microdilution method; format: functional; conditions: ATCC 6538, 48 h
Mycobacterium avium [19] = test: Antimycobacterial activity against Mycobacterium avium CNCTC My 330/88 after 21 days by micromethod; format: functional; conditions: CNCTC My 330/88, 504 h
Klebsiella pneumoniae [20] = test: Antibacterial activity against extended spectrum beta-lactamase producing Klebsiella pneumoniae J 14368/08 after 24 hrs by broth microdilution method; format: functional; conditions: J 14368/08, 24 h
Lichtheimia corymbifera [21] = test: Antifungal activity against Absidia corymbifera 272 after 48 hrs by broth microdilution method; format: functional, organism-based; conditions: Lichtheimia corymbifera, 272, 48 h
Escherichia coli [22] = test: Antibacterial activity against Escherichia coli ATCC 8739 after 48 hrs by broth microdilution method; format: functional; conditions: ATCC 8739, ATCC 8739, 48 h
Aspergillus fumigatus [23] = test: Antifungal activity against Aspergillus fumigatus 231 after 24 hrs by broth microdilution method; format: functional, organism-based; conditions: Aspergillus fumigatus, 231, 24 h
Klebsiella pneumoniae [24] = test: Antibacterial activity against Klebsiella pneumoniae D 11750/08 after 48 hrs by broth microdilution method; format: functional; conditions: D 11750/08, 48 h
Mycobacterium kansasii [25] = test: Antimycobacterial activity against Mycobacterium kansasii 6509/96 after 7 days by micromethod; format: functional; conditions: 6509/96, 168 h
Candida tropicalis [26] = test: Antifungal activity against Candida tropicalis 156 after 48 hrs by broth microdilution method; format: functional; conditions: Candida tropicalis, 156, 48 h
[27] = system: Trichophyton mentagrophytes; test: Antifungal activity against Trichophyton mentagrophytes 445 after 72 hrs by broth microdilution method; format: functional, organism-based; conditions: Trichophyton mentagrophytes, 445, 72 h
[28] = system: Mycobacterium tuberculosis; test: Antimycobacterial activity against Mycobacterium tuberculosis CNCTC My 331/88 after 21 days by micromethod; format: functional; conditions: CNCTC My 331/88, 504 h
Pichia kudriavzevii [29] = test: Antifungal activity against Candida krusei E28 after 48 hrs by broth microdilution method; format: functional; conditions: E28, 48 h
Pseudomonas aeruginosa [30] = test: Antibacterial activity against Pseudomonas aeruginosa ATCC 9027 after 24 hrs by broth microdilution method; format: functional; conditions: ATCC 9027, 24 h
Staphylococcus aureus [31] = test: Antibacterial activity against methicillin-resistant Staphylococcus aureus H 5996/08 after 48 hrs by broth microdilution method; format: functional; conditions: H 5996/08, 48 h
Pichia kudriavzevii [32] = test: Antifungal activity against Candida krusei E28 after 24 hrs by broth microdilution method; format: functional; conditions: E28, 24 h
Klebsiella pneumoniae [33] = test: Antibacterial activity against extended spectrum beta-lactamase producing Klebsiella pneumoniae J 14368/08 after 48 hrs by broth microdilution method; format: functional; conditions: J 14368/08, 48 h
[34] = Cytotoxicity against human HuH7 cells assessed as reduction in cell viability after 48 hrs by MTT assay; format: cell-based; conditions: Huh-7, 48 h
Mycobacterium kansasii [35] = test: Antimycobacterial activity against Mycobacterium kansasii CNCTC My 235/80 after 14 days by micromethod; format: functional; conditions: CNCTC My 235/80, 336 h
Enterococcus faecalis [36] = test: Antibacterial activity against Enterococcus faecalis J 14365/08 after 48 hrs by broth microdilution method; format: functional; conditions: J 14365/08, 48 h
[37] = Cytotoxicity against human HeLa cells assessed as cell viability at 30 uM after 48 hrs by MTT assay; format: cell-based; conditions: read-out: Activity
Mycobacterium kansasii [38] = test: Antimycobacterial activity against Mycobacterium kansasii 6509/96 after 14 days by micromethod; format: functional; conditions: 6509/96, 336 h
Mycobacterium kansasii [39] = test: Antimycobacterial activity against Mycobacterium kansasii CNCTC My 235/80 after 21 days by micromethod; format: functional; conditions: CNCTC My 235/80, 504 h
[40] = Cytotoxicity against human HuH7 cells assessed as cell viability at 30 uM after 48 hrs by MTT assay; format: cell-based, Huh-7; conditions: read-out: Activity
[41] = system: Staphylococcus epidermidis; test: Antibacterial activity against Staphylococcus epidermidis H 6966/08 after 48 hrs by broth microdilution method; format: functional; conditions: H 6966/08, 48 h
Mycobacterium kansasii [42] = test: Antimycobacterial activity against Mycobacterium kansasii 6509/96 after 21 days by micromethod; format: functional; conditions: 6509/96, 504 h
Pseudomonas aeruginosa [43] = test: Antibacterial activity against Pseudomonas aeruginosa ATCC 9027 after 48 hrs by broth microdilution method; format: functional; conditions: ATCC 9027, 48 h
[44] = Cytotoxicity against human HepG2 cells assessed as cell viability at 30 uM after 48 hrs by MTT assay; format: cell-based; conditions: read-out: Activity
Escherichia coli [45] = test: Antibacterial activity against Escherichia coli ATCC 8739 after 24 hrs by broth microdilution method; format: functional; conditions: ATCC 8739, ATCC 8739, 24 h
[46] = system: Staphylococcus epidermidis; test: Antibacterial activity against Staphylococcus epidermidis H 6966/08 after 24 hrs by broth microdilution method; format: functional; conditions: H 6966/08, 24 h
HeLa = test: Cytotoxicity against human HeLa cells assessed as reduction in cell viability after 48 hrs by MTT assay; format: cell-based
[47] = Cytotoxicity against MDCK2 cells assessed as reduction in cell viability after 48 hrs by MTT assay; format: cell-based; conditions: Canis lupus familiaris, MDCK-II
Candida albicans [48] = test: Antifungal activity against Candida albicans ATCC 44859 after 48 hrs by broth microdilution method; format: functional; conditions: ATCC 44859, 48 h
[49] = system: Mycobacterium tuberculosis; test: Antimycobacterial activity against Mycobacterium tuberculosis H37Rv; format: functional

In the case of O=[N+]([O-])c1cc(C[Se]c2nnnn2C2CCCCC2)cc([N+](=O)[O-])c1, the pIC50 (HepG2) was < 4.52, the IC95 (Staphylococcus aureus [1]) was > 500 µM and the IC80 (Candida albicans [2]) was > 500 µM. The MIC (Mycobacterium kansasii [3]) was 1 µM (≈ 0.411 µg/mL), the pIC50 (Lichtheimia corymbifera [4]) was < 3.30 and the MIC (Mycobacterium avium [5]) was 32 µM (≈ 13.2 µg/mL). For the same compound, the IC80 (Nakaseomyces glabratus [6]) was > 500 µM, the MIC [7] was 1 µM (≈ 0.411 µg/mL) and the viability at 48 h, 30 µM [8] was 7%. The IC80 (Candida tropicalis [9]) was > 500 µM, the IC95 (Klebsiella pneumoniae [10]) was > 500 µM and the IC80 (Trichosporon asahii [11]) was > 500 µM. For the same compound, the IC80 (Nakaseomyces glabratus [12]) was > 500 µM, the pIC50 [13] was < 3.30 and the IC95 (Enterococcus faecalis [14]) was > 500 µM. The IC95 (Staphylococcus aureus [15]) was > 500 µM, the IC80 (Trichosporon asahii [16]) was > 500 µM and the pIC50 (Aspergillus fumigatus [17]) was < 3.30. For the same compound, the IC95 (Staphylococcus aureus [18]) was > 500 µM, the MIC (Mycobacterium avium [19]) was 32 µM (≈ 13.2 µg/mL) and the IC95 (Klebsiella pneumoniae [20]) was > 500 µM. The pIC50 (Lichtheimia corymbifera [21]) was < 3.30, the IC95 (Escherichia coli [22]) was > 500 µM and the pIC50 (Aspergillus fumigatus [23]) was < 3.30. The IC95 (Klebsiella pneumoniae [24]) was > 500 µM, the MIC (Mycobacterium kansasii [25]) was 2 µM (≈ 0.823 µg/mL) and the IC80 (Candida tropicalis [26]) was > 500 µM. For the same compound, the pIC50 [27] was < 3.30, the MIC [28] was 2 µM (≈ 0.823 µg/mL) and the IC80 (Pichia kudriavzevii [29]) was > 500 µM. For the same compound, the IC95 (Pseudomonas aeruginosa [30]) was > 500 µM, the IC95 (Staphylococcus aureus [31]) was > 500 µM and the IC80 (Pichia kudriavzevii [32]) was > 500 µM. The IC95 (Klebsiella pneumoniae [33]) was > 500 µM, the pIC50 [34] was < 4.52 and the MIC (Mycobacterium kansasii [35]) was 1 µM (≈ 0.411 µg/mL). The IC95 (Enterococcus faecalis [36]) was > 500 µM, the viability at 48 h, 30 µM [37] was 66% and the MIC (Mycobacterium kansasii [38]) was 4 µM (≈ 1.65 µg/mL). For the same compound, the MIC (Mycobacterium kansasii [39]) was 2 µM (≈ 0.823 µg/mL), the viability at 48 h, 30 µM [40] was 125% and the IC95 [41] was > 500 µM. The MIC (Mycobacterium kansasii [42]) was 4 µM (≈ 1.65 µg/mL), the IC95 (Pseudomonas aeruginosa [43]) was > 500 µM and the viability at 48 h, 30 µM [44] was 87%. For the same compound, the IC95 (Escherichia coli [45]) was > 500 µM, the IC95 [46] was > 500 µM and the pIC50 (HeLa) was < 4.52. The pIC50 [47] was 4.72 and the IC80 (Candida albicans [48]) was > 500 µM.

O=[N+]([O-])c1cn2c(n1)OC[C@@H](OCc1ccc(OC(F)(F)F)cc1)C2 [PRETOMANID] showed an MIC [49] of 0.11 µM (≈ 0.0395 µg/mL).
